The results in this text go back to patent US6809065B2, “Herbicide containing substituted pyrazole derivative as active ingredient” (SDS Biotech K.K., priority 2001, dated 2004).

One series concerns Echinochloa spp. Nature of the series: Paddy field treatment (Test Example 3). In kind it is in vivo, Echinochloa crusgalli. As to conditions: paddy pot, submerged 4 cm, dropped on water surface 10th day after transplantation, 1 kg active ingredient per hectare, evaluated 21st day. The procedure, abridged: (§1)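 Paddy soil in pots was puddled and flooded to 4 cm, weeds were sown, and two-leaf Koshihikari rice was transplanted at 3 cm depth. Ten days after transplanting, wettable powder was applied onto the water surface at 1 kg active ingredient per hectare. Herbicidal effect was index-scored 21 days later.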

In series [1] the test system is rice (Oryza sative, variety: Koshihikari). Put plainly: Paddy field treatment (Test Example 3), crop. In kind it is in vivo, Oryza sativa. The conditions noted are these: transplanted rice two-leaf period, water surface treatment 10th day after transplantation, 1 kg active ingredient per hectare, evaluated 21st day, lower index = higher safety. The method in brief: as §1

Another series relates to Scirpus juncoides. Nature of the series: Paddy field treatment (Test Example 3). In kind it is in vivo. The conditions noted are these: paddy pot, submerged 4 cm, dropped on water surface 10th day after transplantation, 1 kg active ingredient per hectare, evaluated 21st day. The method in brief:
as §1

A further series concerns Monochoria vaginalis. Put plainly: Paddy field treatment (Test Example 3). It counts as in vivo. As to conditions: paddy pot, submerged 4 cm, dropped on water surface 10th day after transplantation, 1 kg active ingredient per hectare, evaluated 21st day. The method in brief: as §1
In another series the test system is Ammannia multiflora. Nature of the series: Paddy field treatment (Test Example 3). It counts as in vivo. As to conditions: paddy pot, submerged 4 cm, dropped on water surface 10th day after transplantation, 1 kg active ingredient per hectare, evaluated 21st day. The procedure, abridged:
as §1

The subject of series [2] is soybean (Glycine max). Put plainly: Upland field foliage treatment (Test Example 1), crop. It counts as in vivo. The conditions noted are these: foliage treatment 14th day after sowing, 1 kg active ingredient per hectare, evaluated 21st day, lower index = higher safety. The method in brief:
(§2)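 Foliar spray, 1 kg a.i./ha, wettable powder in water, applied 14 d post-sowing; seeds covered by ~1 cm upland soil. Index scoring at 21 d. Higher index = stronger weed control; for crops, lower index = greater safety.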

For series [3], the system named is wheat (Triticum aestivum). Described as above. In kind it is in vivo. As to conditions: foliage treatment 14th day after sowing, 1 kg active ingredient per hectare, evaluated 21st day, lower index = higher safety. The procedure, abridged: as §2
The subject of series [4] is Setaria viridis. Nature of the series: Upland soil treatment (Test Example 2). In kind it is in vivo. As to conditions: soil surface treatment next day after sowing, wettable powder, 1 kg active ingredient per hectare, evaluated 21st day after application. The procedure, abridged:
(§3)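 Scores were assigned 21 days after treatment on an index where higher means stronger weed control and, for crops, lower means greater safety. A wettable-powder formulation at 1 kg a.i./ha was applied to the soil surface one day after sowing seeds under about 1 cm of upland soil.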

The test system of series [5] is Digitaria adscendens. Put plainly: Upland soil treatment (Test Example 2). The conditions noted are these: soil surface treatment next day after sowing, wettable powder, 1 kg active ingredient per hectare, evaluated 21st day after application. It counts as in vivo. The procedure, abridged:
as §3

Series [6] has as its system Stellaria media. Nature of the series: Upland soil treatment (Test Example 2). It counts as in vivo. As to conditions: soil surface treatment next day after sowing, wettable powder, 1 kg active ingredient per hectare, evaluated 21st day after application. The procedure, abridged: as §3
Series [7] concerns Chenopodium album. Nature of the series: Upland soil treatment (Test Example 2). The conditions noted are these: soil surface treatment next day after sowing, wettable powder, 1 kg active ingredient per hectare, evaluated 21st day after application. It counts as in vivo. The method in brief: as §3
Series [8] concerns Setaria viridis. Put plainly: Upland field foliage treatment (Test Example 1). It counts as in vivo. The conditions noted are these: foliage treatment 14th day after sowing, wettable powder, 1 kg active ingredient per hectare, evaluated 21st day after application. The method in brief:
as §2

Series [9] has as its system Digitaria adscendens. Put plainly: Upland field foliage treatment (Test Example 1). In kind it is in vivo. As to conditions: foliage treatment 14th day after sowing, wettable powder, 1 kg active ingredient per hectare, evaluated 21st day after application. The procedure, abridged: as §2
Series [10] deals with Stellaria media. Nature of the series: Upland field foliage treatment (Test Example 1). In kind it is in vivo. As to conditions: foliage treatment 14th day after sowing, wettable powder, 1 kg active ingredient per hectare, evaluated 21st day after application. The method in brief: as §2
For series [11], the system named is Chenopodium album. Put plainly: Upland field foliage treatment (Test Example 1). In kind it is in vivo. The conditions noted are these: foliage treatment 14th day after sowing, wettable powder, 1 kg active ingredient per hectare, evaluated 21st day after application. The method in brief: as §2
The test system of series [12] is soybean (Glycine max). Nature of the series: Upland soil treatment (Test Example 2), crop. In kind it is in vivo. As to conditions: soil surface treatment next day after sowing, 1 kg active ingredient per hectare, evaluated 21st day, lower index = higher safety. The method in brief: as §3
Series [13] concerns wheat (Triticum aestivum). Put plainly: Upland soil treatment (Test Example 2), crop. In kind it is in vivo. As to conditions: soil surface treatment next day after sowing, 1 kg active ingredient per hectare, evaluated 21st day, lower index = higher safety. The procedure, abridged:
as §3

Consider `CCc1cc(-c2ccccc2)nn1CC(=COC)C(=O)OC` [Compound 36], for which the “Herbicidal activity Echinochloa spp.” value in the series on Echinochloa spp. was 3 (herbicidal effect of not less than 50% by weight and less than 70% by weight). In addition, the “Herbicidal activity Oryza sativa” value in series [1] was 0 (herbicidal effect of not less than 0% by weight and less than 10% by weight). For the same compound, the “Herbicidal activity Scirpus juncoides” value in the series on Scirpus juncoides was 3 (herbicidal effect of not less than 50% by weight and less than 70% by weight). In the series with Monochoria vaginalis, the “Herbicidal activity Monochoria vaginalis” value was 3 (herbicidal effect of not less than 50% by weight and less than 70% by weight). Moreover, the “Herbicidal activity Ammannia multiflora” value with Ammannia multiflora was 3 (herbicidal effect of not less than 50% by weight and less than 70% by weight). Moreover, the “Herbicidal activity Glycine max” value with soybean (Glycine max) [2] was 1 (herbicidal effect of not less than 10% by weight and less than 30% by weight); in the series with soybean (Glycine max) [12] it was 0 (herbicidal effect of not less than 0% by weight and less than 10% by weight). For the same compound, the “Herbicidal activity Triticum aestivum” value in series [3] is 1 (herbicidal effect of not less than 10% by weight and less than 30% by weight); in series [13] it was 0 (herbicidal effect of not less than 0% by weight and less than 10% by weight). Besides, the “Herbicidal activity Setaria viridis” value is 4 (herbicidal effect of not less than 70% by weight and less than 90% by weight) in the series on Setaria viridis [4]; 5 (herbicidal effect of not less than 90% by weight) in the series on Setaria viridis [8]. Further, the “Herbicidal activity Digitaria adscendens” value is 4 (herbicidal effect of not less than 70% by weight and less than 90% by weight) in the series with Digitaria adscendens [5]; 4 (herbicidal effect of not less than 70% by weight and less than 90% by weight) with Digitaria adscendens [9]. Besides, the “Herbicidal activity Stellaria media” value was 4 (herbicidal effect of not less than 70% by weight and less than 90% by weight) in the series with Stellaria media [6]; 5 (herbicidal effect of not less than 90% by weight) in the series on Stellaria media [10]. Also, the “Herbicidal activity Chenopodium album” value is 4 (herbicidal effect of not less than 70% by weight and less than 90% by weight) with Chenopodium album [7]; 5 (herbicidal effect of not less than 90% by weight) in the series on Chenopodium album [11].

On to `COC=C(Cn1nc(-c2cccc(C)c2)c(Br)c1C)C(=O)OC` [Compound 26], for which the “Herbicidal activity Echinochloa spp.” value in the series with Echinochloa spp. is recorded as 5 (herbicidal effect of not less than 90% by weight). Also, the “Herbicidal activity Oryza sativa” value in series [1] is 0 (herbicidal effect of not less than 0% by weight and less than 10% by weight). Moreover, the “Herbicidal activity Scirpus juncoides” value in the series on Scirpus juncoides was 4 (herbicidal effect of not less than 70% by weight and less than 90% by weight). Further, in the series with Monochoria vaginalis, the “Herbicidal activity Monochoria vaginalis” value is recorded as 5 (herbicidal effect of not less than 90% by weight). For the same compound, the “Herbicidal activity Ammannia multiflora” value with Ammannia multiflora is listed as 5 (herbicidal effect of not less than 90% by weight). For the same compound, the “Herbicidal activity Glycine max” value with soybean (Glycine max) [2] is 1 (herbicidal effect of not less than 10% by weight and less than 30% by weight); in the series with soybean (Glycine max) [12], 0 (herbicidal effect of not less than 0% by weight and less than 10% by weight). In addition, the “Herbicidal activity Triticum aestivum” value in series [3] is 0 (herbicidal effect of not less than 0% by weight and less than 10% by weight); in series [13], 0 (herbicidal effect of not less than 0% by weight and less than 10% by weight). Besides, the “Herbicidal activity Setaria viridis” value with Setaria viridis [4] was 4 (herbicidal effect of not less than 70% by weight and less than 90% by weight); with Setaria viridis [8], 4 (herbicidal effect of not less than 70% by weight and less than 90% by weight). Also, the “Herbicidal activity Digitaria adscendens” value with Digitaria adscendens [5] was 4 (herbicidal effect of not less than 70% by weight and less than 90% by weight); in the series on Digitaria adscendens [9] it was 5 (herbicidal effect of not less than 90% by weight). Moreover, the “Herbicidal activity Stellaria media” value is 4 (herbicidal effect of not less than 70% by weight and less than 90% by weight) in the series with Stellaria media [6]; 5 (herbicidal effect of not less than 90% by weight) in the series with Stellaria media [10]. Besides, the “Herbicidal activity Chenopodium album” value with Chenopodium album [7] was 4 (herbicidal effect of not less than 70% by weight and less than 90% by weight); with Chenopodium album [11], 5 (herbicidal effect of not less than 90% by weight).

As to `COC=C(Cn1nc(-c2c(Cl)cccc2Cl)cc1C)C(=O)OC` [Compound 9], the “Herbicidal activity Echinochloa spp.” value with Echinochloa spp. is 3 (herbicidal effect of not less than 50% by weight and less than 70% by weight). In addition, the “Herbicidal activity Oryza sativa” value in [1] is 0 (herbicidal effect of not less than 0% by weight and less than 10% by weight). In the series with Scirpus juncoides, the “Herbicidal activity Scirpus juncoides” value was 3 (herbicidal effect of not less than 50% by weight and less than 70% by weight). Besides, in the series with Monochoria vaginalis, the “Herbicidal activity Monochoria vaginalis” value is 3 (herbicidal effect of not less than 50% by weight and less than 70% by weight). In the series on Ammannia multiflora, the “Herbicidal activity Ammannia multiflora” value was 3 (herbicidal effect of not less than 50% by weight and less than 70% by weight). Further, the “Herbicidal activity Glycine max” value is 0 (herbicidal effect of not less than 0% by weight and less than 10% by weight) with soybean (Glycine max) [2]; 0 (herbicidal effect of not less than 0% by weight and less than 10% by weight) in the series with soybean (Glycine max) [12]. For the same compound, the “Herbicidal activity Triticum aestivum” value is 0 (herbicidal effect of not less than 0% by weight and less than 10% by weight) in series [3]; 0 (herbicidal effect of not less than 0% by weight and less than 10% by weight) in [13]. Further, the “Herbicidal activity Setaria viridis” value in the series with Setaria viridis [4] was 4 (herbicidal effect of not less than 70% by weight and less than 90% by weight); with Setaria viridis [8] it was 4 (herbicidal effect of not less than 70% by weight and less than 90% by weight). In addition, the “Herbicidal activity Digitaria adscendens” value in the series on Digitaria adscendens [5] is 4 (herbicidal effect of not less than 70% by weight and less than 90% by weight); in the series on Digitaria adscendens [9] it was 4 (herbicidal effect of not less than 70% by weight and less than 90% by weight). Further, the “Herbicidal activity Stellaria media” value in the series with Stellaria media [6] was 4 (herbicidal effect of not less than 70% by weight and less than 90% by weight); in the series with Stellaria media [10] it was 4 (herbicidal effect of not less than 70% by weight and less than 90% by weight). Moreover, the “Herbicidal activity Chenopodium album” value in the series on Chenopodium album [7] is 5 (herbicidal effect of not less than 90% by weight); in the series on Chenopodium album [11], 4 (herbicidal effect of not less than 70% by weight and less than 90% by weight).

Turning to `COC=C(Cn1nc(-c2ccccc2)c(Br)c1SC)C(=O)OC` [Compound 44], the “Herbicidal activity Echinochloa spp.” value with Echinochloa spp. is 3 (herbicidal effect of not less than 50% by weight and less than 70% by weight). Also, the “Herbicidal activity Oryza sativa” value in series [1] is 0 (herbicidal effect of not less than 0% by weight and less than 10% by weight). The “Herbicidal activity Scirpus juncoides” value in the series with Scirpus juncoides was 3 (herbicidal effect of not less than 50% by weight and less than 70% by weight). The “Herbicidal activity Monochoria vaginalis” value in the series on Monochoria vaginalis was 3 (herbicidal effect of not less than 50% by weight and less than 70% by weight). Moreover, the “Herbicidal activity Ammannia multiflora” value with Ammannia multiflora is 3 (herbicidal effect of not less than 50% by weight and less than 70% by weight). Besides, the “Herbicidal activity Glycine max” value in the series on soybean (Glycine max) [2] was 0 (herbicidal effect of not less than 0% by weight and less than 10% by weight); with soybean (Glycine max) [12], 0 (herbicidal effect of not less than 0% by weight and less than 10% by weight). Besides, the “Herbicidal activity Triticum aestivum” value was 0 (herbicidal effect of not less than 0% by weight and less than 10% by weight) in series [3]; 0 (herbicidal effect of not less than 0% by weight and less than 10% by weight) in series [13]. Further, the “Herbicidal activity Setaria viridis” value in the series with Setaria viridis [4] was 4 (herbicidal effect of not less than 70% by weight and less than 90% by weight); with Setaria viridis [8] it was 4 (herbicidal effect of not less than 70% by weight and less than 90% by weight). Besides, the “Herbicidal activity Digitaria adscendens” value with Digitaria adscendens [5] is 4 (herbicidal effect of not less than 70% by weight and less than 90% by weight); in the series on Digitaria adscendens [9], 4 (herbicidal effect of not less than 70% by weight and less than 90% by weight). Further, the “Herbicidal activity Stellaria media” value in the series on Stellaria media [6] is 4 (herbicidal effect of not less than 70% by weight and less than 90% by weight); in the series with Stellaria media [10] it was 4 (herbicidal effect of not less than 70% by weight and less than 90% by weight). For the same compound, the “Herbicidal activity Chenopodium album” value in the series with Chenopodium album [7] was 4 (herbicidal effect of not less than 70% by weight and less than 90% by weight); in the series with Chenopodium album [11], 4 (herbicidal effect of not less than 70% by weight and less than 90% by weight).
